Assay results: ChEMBL document CHEMBL3507680, “University of Dundee, Gates Library screen for HepG2 cell viability”

Assay: Human HepG2 cell viability assay in 384 well format
Format: toxicity, cell-based
Design: dose 125 nL, time 70.5 hour; cytotoxicity at 70.5 h: concentration not given beside the values
Settings: HepG2 cells, read-out: Inhibition

SMILES | cytotoxicity at 70.5 h [%]
Cc1cccc(-c2nc(C)nn2CC(=O)NC(C)C)c1 | 18.6
CCN1CCN(c2nc(C(C)C)nc3c(C)nn(CC)c23)CC1 | 13.6
COc1cc(CNC2CCc3nc(C(C)C)nn3C2)cc2c1OCO2 (configuration not stated) | -13.1
Cc1nc(C2CCCN(C(=O)CN3CCCNC3=O)C2)sc1C (configuration not stated) | -8.3
CC(C)N1CCc2c(C#N)c(NCc3ccco3)n3cnnc3c2C1 | -10.3
Cc1noc(C(C)N2CCN(CCn3ccccc3=O)CC2)n1 (configuration not stated) | -1.66
Cc1ccc(S(=O)(=O)N2C[C@@H]3C[C@@H](NC(=O)C(C)(C)C)[C@@H]3C2)cc1 | -16.5
O=C(c1ccc(-c2ccc(O)nc2)s1)N1CCCCC1 | -8.32
CCN(CCCN1CCOCC1)C(=O)c1cnn(CC)c1 | 2.38
CCNc1cc2c(nn1)CCN(C(=O)c1ccc(C(N)=O)cc1)C2 | 20.2
O=C1CCNc2ncc(-c3ccc(Cl)cc3)cc2CN1C1CC1 | -8.11
Cc1nc(CNC(C)c2cccc(S(=O)(=O)N(C)C)c2)no1 (configuration not stated) | 16.5
CC(C)(N)C(=O)N1CCCC(C(=O)c2ccc(C(C)(C)C)cc2)C1 (configuration not stated) | -3.3
CC(CC(=O)c1ccco1)NC(=O)c1ccccn1 (configuration not stated) | -10.8
CCS(=O)(=O)N1CCOC(CCCc2ccccc2)C1 (configuration not stated) | 5.87
N#Cc1ncn(CCC(=O)Nc2ccccc2F)n1 | -0.493
CCC(C)c1noc(C2CCN(C(=O)Cn3nc(C)cc3C)CC2)n1 (configuration not stated) | -5.55
O=C(NCC1CCC1)c1cccc(CN2CCS(=O)(=O)CC2)c1 | -16.2
Cc1nc(-c2cnn(C)c2)sc1C(=O)NCc1cccc(CN(C)C)c1 | -6.53

SMILES | cytotoxicity at 70.5 h [%]
c1cn2c(n1)CN(Cc1ccsc1)CC(Cn1cncn1)C2 (configuration not stated) | -11.2
CCc1csc(C2CCCN(C(=O)CCn3cc(C)cn3)C2)n1 (configuration not stated) | 17.5
O=C(CCc1cccs1)N1CCCC1c1noc(C2CC2)n1 (configuration not stated) | -6.44
COCc1ccccc1C(=O)NCC(O)c1ccc(Cl)s1 (configuration not stated) | 0.31
CNc1cc(N2CCCC2CNCc2ccccn2)ncn1 (configuration not stated) | 14.8
CC(C#N)CSc1ccccc1NCC(=O)NC1CCCCC1 (configuration not stated) | -1.2
CC(C)CC(=O)N1CCc2ccc(S(=O)(=O)N3CCN(C)CC3)cc2C1 | -8.6
NC(=O)C(Cc1ccccc1)NS(=O)(=O)Cc1ccccc1F (configuration not stated) | -15
COc1ccc(-c2ccc(C(=O)N3CCOCC3CC(N)=O)o2)cc1 (configuration not stated) | -2.54
CCN(CC)C(=O)N1CCOCC1c1c(C)nn(C)c1C (configuration not stated) | -10.5
CC1CN(C(=O)c2cc[nH]c(=O)c2)c2ccccc21 (configuration not stated) | -12.3
CC(=O)N(c1ccc(C)cc1)c1nc(CN2CCCC(C)C2)cs1 (configuration not stated) | 12.3
Cc1ccc(CN(C)C(=O)c2cccc(NC(N)=O)c2)o1 | -11.5
C[C@H](NC(=O)OC(C)(C)C)c1nnc(S(=O)(=O)Cc2cccc(F)c2)o1 | -6.88
CCC(=O)NCC(Cc1cccc(F)c1)n1cccc1 (configuration not stated) | -7.66
CCc1nc(CN2CCCC2C(=O)NC2CC2)cs1 (configuration not stated) | -7.43
CSC(C)CC(=O)N1CCC(n2ccnn2)CC1 (configuration not stated) | -8.7
CCC(=O)Nc1ccccc1Sc1nc(Br)nn1C | -8.59
Cc1noc(C)c1CC(=O)N1CCC(Nc2cccnn2)CC1 | 20.6

SMILES | cytotoxicity at 70.5 h [%]
N#Cc1ccc(Oc2cc(F)c(CN3CCCC3)c(F)c2)nc1 | -2.2
Cc1cc(NC(=O)NCC(c2ccsc2)N(C)C)n(C)n1 (configuration not stated) | -10.2
CC(=O)N[C@H]1CCN2C(=O)[C@@H](Cc3c[nH]c4ccccc34)NC(=O)[C@H]12 | -13.3
O=C(CCn1ccccc1=O)Nc1ccc(F)c(Cl)c1 | -11.7
COc1ccc(-c2cc(=O)n3c(n2)CCCCC3)cc1 | -10.4
COc1ccc(CNC(=O)Cn2ccc3sccc3c2=O)cc1 | 12.8
CN1CCN(C(=O)N2CCC3(CCCN(C4CCOCC4)C3=O)C2)CC1 (configuration not stated) | -0.535
CCc1cc(=O)[nH]c2nnc(SCC(=O)N3CCC(C)CC3)n12 | 19.7
COc1cc2nc(C)n(CC(=O)NCCCN(C)C)c(=O)c2cc1OC | 6.18
CCCNc1ncc(CN2CCOC(Cc3cccc(F)c3)C2)cn1 (configuration not stated) | -10.7
Cc1noc(C2CCCN(C(=O)c3cc(Cl)cn3C)C2)n1 (configuration not stated) | -4.77
NC(=O)c1cnc2n1CCN(C(=O)c1cccc(Cn3cccn3)c1)C2 | -5.38
Cc1ccccc1CNCc1cc(Cl)ccc1O | -11.5
CCCN(C)S(=O)(=O)N1CCCC1c1ccco1 (configuration not stated) | 1.45
Cc1ccc(NC(=O)C2CSCN2C(=O)c2cc[nH]n2)c(C)c1 (configuration not stated) | -2.12
Cc1nc(N(C)C)cc(C2(C)CCNCC2)n1 | -1.8
CC(=O)N1CCCN(CCn2nc3ccccn3c2=O)CC1 | -0.882
O=C(NC1CC1)c1ccccc1NCc1cn2cccnc2n1 | -5.34
Cc1cnn(CC2CCCN2C(=O)c2cc3ccccc3c(=O)[nH]2)c1 (configuration not stated) | -12.3
